Source: ChEMBL document CHEMBL1137435, “Synthesis and application of 2'-fluoro-substituted cap analogs” (Bioorg Med Chem Lett, 2007)

Assay: Capping efficiency on mRNA after 2 hrs by gel shift assay

**Q.** For `C[n+]1cn([C@H]2O[C@@H](COP(=O)([O-])OP(=O)(O)OP(=O)(O)OC[C@H]3O[C@@H](n4cnc5c(=O)[nH]c(N)nc54)[C@H](O)[C@@H]3O)[C@H](O)[C@@H]2O)c2nc(N)[nH]c(=O)c21`, which Activity is on record?
**A.** Its Activity is 61%.

**Q.** With `C[n+]1cn([C@@H]2O[C@H](COP(=O)([O-])OP(=O)([O-])OP(=O)(O)OC[C@@H]3O[C@H](n4c[n+](C)c5c(=O)[nH]c(N)nc54)[C@@H](F)[C@H]3O)[C@@H](O)[C@H]2O)c2nc(N)[nH]c(=O)c21` as the compound, how does the Activity read?
**A.** Its Activity is 52%.

**Q.** With `C[n+]1cn([C@H]2O[C@@H](COP(=O)([O-])OP(=O)(O)OP(=O)(O)OC[C@H]3O[C@@H](n4cnc5c(=O)[nH]c(N)nc54)[C@H](O)[C@@H]3O)[C@H](O)[C@@H]2F)c2nc(N)[nH]c(=O)c21` as the compound, how does the Activity read?
**A.** Its Activity is 70%.
